{
  "source": "patent US20030091615A1",
  "about": "“Use of betaine to enhance exercise performance” (priority 2001, published 2003)",
  "tested_on": "male subjects",
  "assay": "Randomized placebo-controlled double blind exercise test: rehydration solution, 75 min treadmill run in 30° C. heat, then sprint to volitional exhaustion",
  "type": "in vivo, human",
  "text": "Ten male subjects were selected to participate in four experimental tests, described below. The study design was a randomized placebo-controlled double blind test. These tests were identical, except that a different rehydration solution was consumed during each session. The rehydration solutions are:\n(a) Non-nutritive KOOL-AID®;\n(b) Non-nutritive KOOL-AID® and betaine (5 g/l);\n(d) GATORADE® and betaine (5 g/l).\nThe order of treatment for each subject was randomized.\nThe following measurements were taken throughout each of the four experimental tests:\n1) Hydration variables were measured each day, including urine specific gravity and color, body weight, plasma osmolity.\n2) Blood variables were sampled during each trial, including, hematocrit, hemoglobin, osmolality, glucose, lactate.\n3) Physiological variables were measured during each trial, such as time to exhaustion (duration of final sprint), heart rate, blood pressure, oxygen consumption, minute ventilation, mean weighted skin temperature, rectal temperature, whole body sweat rate.\n4) Perceptual variables were recorded, such as rating of perceived exertion (Borg scale) during the exercise test, thermal stress during the exercise test, thirst sensation during the exercise test.\nEach subject participated in four experimental tests, performed at the same time of day for each subject, using the same posture at each stage of testing. Experimental tests were randomized. Trials were conducted in an environmental chamber controlled at 30° C.\nWhen they arrived at the test center at 7:00 a.m., the body weight was measured, a blood sample was taken and the specific gravity of the urine was measured. In general, the subjects were mildly dehydrated, losing approximately 1% body weight. […] Subsequently, thereto, they then entered an environmental chamber which was maintained at a temperature of 30° C. and they stood for thirty minutes to effect fluid and thermal equilibration.\nVarious measurements were taken of each subject including blood pressure, urine specific gravity, body weight, blood pressure, plasma, osmolality and a blood sample when in the environmental chamber prior to the test. Each then performed cycling and walking exercise for 60-90 minutes at 50-55% VO2max so that they each lost about 3% of body weight.\nAt about 9:30 a.m., they consumed one of the above fluids.\nThe total volume was ingested in five equal portions over 25 minutes. (This increased the body weight change to a −1.5% level). They each stood an additional twenty minutes to allow gastric emptying. Then they began a treadmill run for 75 minutes at 65% VO2max. They finished the exercise in the heat by a sprinting to volitional exhaustion at a treadmill pace that elicits 90% VO2max. At the conclusion, they stood in the environmental chamber for additional measurements during a 15 minute recovery period. They left the chamber, then ate a meal and drank fluids.\nThe test was repeated for each person three more times, except each time they ingested a different one of the fluids so that at the end of the test, each subject had ingested each one of the four fluids. Subjects were instructed to match the diet they ate before the initial experiment, during the three subsequent trials. […]",
  "data": [
    {"compound": "C[N+](C)(C)CC(=O)[O-]", "note": "[betaine, trimethylglycine]", "values": [
      {"measurement": "increased plasma lactate levels 15 minutes after the sprint", "setting": "GATORADE trials, betaine 5 g/l", "value": 17, "unit": "%"},
      {"measurement": "increased plasma lactate levels immediately after the sprint", "setting": "GATORADE trials, betaine 5 g/l", "value": 10, "unit": "%"},
      {"measurement": "greater oxygen uptake (aerobic metabolism) while sprinting", "setting": "GATORADE trials, betaine 5 g/l vs GATORADE alone", "value": 6, "unit": "%"},
      {"measurement": "increased plasma lactate levels after the sprint", "setting": "KOOL-AID trials, betaine 5 g/l", "value": "This effect was not seen"},
      {"measurement": "greater oxygen uptake (aerobic metabolism) while sprinting", "setting": "KOOL-AID trials, betaine 5 g/l vs KOOL-AID alone", "value": "This effect was not seen"}
    ]}
  ]
}
